Reference: ChEMBL document CHEMBL4411276, “Chemistry-oriented synthesis (ChOS) and target deconvolution on neuroprotective effect of a novel scaffold, oxaza spiroquinone” (Eur J Med Chem, 2019)

Assays:
[1] = biological target: Serine/threonine-protein kinase N2 (Homo sapiens) (UniProt Q16513); experiment: Inhibition of human PKN2 assessed as enzyme activity at 30 uM using KKLNRTLSVA as substrate by [gamma-33P]-ATP assay relative to control; design: scale not given: the % may be the effect or the level left
[2] = biological target: CDK3/Cyclin E (Homo sapiens) (UniProt P24864+Q00526); experiment: Inhibition of human CDK3/cyclin-E assessed as enzyme activity at 30 uM using histone H1 as substrate by [gamma-33P]-ATP assay relative to control; type: protein-complex assay; design: scale not given: the % may be the effect or the level left
[3] = biological target: Mitogen-activated protein kinase 8 (Homo sapiens) (UniProt P45983); experiment: Inhibition of human JNK1 assessed as enzyme activity at 30 uM using ATF2 as substrate by [gamma-33P]-ATP assay relative to control; design: scale not given: the % may be the effect or the level left
[4] = biological target: Serine/threonine-protein kinase 24 (Homo sapiens) (UniProt Q9Y6E0); experiment: Inhibition of human MST3 assessed as enzyme activity at 30 uM using MBP as substrate by [gamma-33P]-ATP assay relative to control; design: scale not given: the % may be the effect or the level left
[5] = biological target: Mitogen-activated protein kinase 10 (Homo sapiens) (UniProt P53779); experiment: Inhibition of human JNK3 assessed as enzyme activity at 30 uM using ATF2 as substrate by [gamma-33P]-ATP assay relative to control; design: scale not given: the % may be the effect or the level left
[6] = biological target: Protein kinase C alpha type (Homo sapiens) (UniProt P17252); experiment: Inhibition of human PKCalpha assessed as enzyme activity at 30 uM using ERMRPRKRQGSVRRRV as substrate by [gamma-33P]-ATP assay relative to control; design: scale not given: the % may be the effect or the level left
[7] = biological target: Serine/threonine-protein kinase 25 (Homo sapiens) (UniProt O00506); experiment: Inhibition of human STK25 assessed as enzyme activity at 30 uM using MBP as substrate by [gamma-33P]-ATP assay relative to control; design: scale not given: the % may be the effect or the level left
[8] = biological target: T1, Serine/threonine-protein kinase haspin (Homo sapiens) (UniProt Q8TF76); experiment: Inhibition of human haspin assessed as enzyme activity at 30 uM using Histone H3 as substrate by [gamma-33P]-ATP assay relative to control; design: scale not given: the % may be the effect or the level left
T1 sequence (whole entry): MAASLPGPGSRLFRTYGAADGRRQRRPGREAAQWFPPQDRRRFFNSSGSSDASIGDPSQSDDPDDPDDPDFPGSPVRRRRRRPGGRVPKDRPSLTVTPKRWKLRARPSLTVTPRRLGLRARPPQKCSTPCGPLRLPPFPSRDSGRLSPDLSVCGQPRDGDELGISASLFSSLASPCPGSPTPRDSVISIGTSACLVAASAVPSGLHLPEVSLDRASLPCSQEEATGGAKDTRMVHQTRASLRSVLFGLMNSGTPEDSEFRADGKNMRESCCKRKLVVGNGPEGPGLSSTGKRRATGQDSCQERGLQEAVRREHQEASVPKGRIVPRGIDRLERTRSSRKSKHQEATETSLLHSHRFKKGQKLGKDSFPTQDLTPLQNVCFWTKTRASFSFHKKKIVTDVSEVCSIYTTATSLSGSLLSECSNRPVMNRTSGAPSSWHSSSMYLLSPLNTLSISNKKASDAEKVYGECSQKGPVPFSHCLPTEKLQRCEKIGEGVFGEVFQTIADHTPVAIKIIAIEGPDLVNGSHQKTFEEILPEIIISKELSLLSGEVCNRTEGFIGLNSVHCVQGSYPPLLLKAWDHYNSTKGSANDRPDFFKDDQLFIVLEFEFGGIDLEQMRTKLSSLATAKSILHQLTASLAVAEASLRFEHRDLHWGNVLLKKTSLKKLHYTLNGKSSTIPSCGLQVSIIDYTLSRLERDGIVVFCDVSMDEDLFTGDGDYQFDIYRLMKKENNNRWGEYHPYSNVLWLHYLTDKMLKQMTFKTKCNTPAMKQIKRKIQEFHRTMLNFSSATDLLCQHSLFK

Mus musculus = experiment: Cognition enhancing effect in ICR mouse model of scopolamine-induced memory impairment assessed as spontaneous alteration at 10 mg/kg by Y-maze test (reference value: 45.14%); type: functional
[9] = biological target: CDK2/Cyclin O (Homo sapiens) (UniProt P24941+P22674); experiment: Inhibition of human CDK2/cyclin-O assessed as enzyme activity at 30 uM using histone H1 as substrate by [gamma-33P]-ATP assay relative to control; type: protein-complex assay; design: scale not given: the % may be the effect or the level left
[10] = biological target: Mitogen-activated protein kinase 9 (Homo sapiens) (UniProt P45984); experiment: Inhibition of human JNK2 assessed as enzyme activity at 30 uM using ATF2 as substrate by [gamma-33P]-ATP assay relative to control; design: scale not given: the % may be the effect or the level left
[11] = Cytotoxicity against mouse BV2 cells assessed as cell survival after 24 hrs by MTT assay relative to control; type: cell-based, BV-2; design: concentration or dose not given beside the values; conditions: read-out: Survival

O=C1C=CC2(C=C1)OCC(Cc1cc(C(F)(F)F)cc(C(F)(F)F)c1)C(=O)N2c1ccccc1 (configuration not stated)
Activity [1]: 62.2 to 64.8% | Activity [2]: 58.5 to 60.2% | Activity [3]: 35.6 to 36% | Activity [4]: 57.6 to 58.2% | Activity [5]: 70.6 to 73.4% | Activity [6]: 44.8 to 46.5% | Activity [7]: 66.9 to 67% | Activity [8]: 66.1 to 66.8% | Activity (Mus musculus): 59.62% | Activity [9]: 42.3 to 43.8% | Activity [10]: 57.8 to 58.8% | viability at 24 h [11]: 85.4%
